# Assay results reported in ChEMBL document CHEMBL1124036 (J Med Chem, 1988).
# Test system: Vaccinia virus
# Assay: The minimum inhibitory concentration required for 50% inhibition of vaccinia virus induced cytopathogenic effect in L929 cells; G indicates CPE reduction <50%
# Type: functional, organism-based
# Conditions: Orthopoxvirus vaccinia
row,SMILES,MIC50
1,Nc1nc(Cl)nc2c1ncn2C1O[C@H](CO)[C@H](O)[C@H]1N (some centres undefined),CPE reduction <50%

# Test system: Vaccinia virus
# Assay: Virus rating on vaccinia virus measured as the degree of inhibition of virus induced cytopathogenic effect in L929 cells
# Type: functional, Orthopoxvirus vaccinia
# Conditions: not given
row,SMILES,Virus rating
1,Nc1nc(Cl)nc2c1ncn2C1O[C@H](CO)[C@H](O)[C@H]1N (some centres undefined),0.6
2,Nc1nc(F)nc2c1ncn2C1O[C@H](CO)[C@H](O)[C@H]1Cl (some centres undefined),0.6
3,Nc1nc(Cl)nc2c1ncn2C1O[C@H](CO)[C@H](O)[C@H]1Cl (some centres undefined),0.7
4,[N-]=[N+]=N[C@H]1C(n2cnc3c(N)nc(Cl)nc32)O[C@H](CO)[C@@H]1O (some centres undefined),0.8
5,Nc1nc(Cl)nc2c1ncn2C1O[C@H](CO)[C@H](O)[C@H]1Br (some centres undefined),0.4
6,[N-]=[N+]=N[C@H]1C(n2cnc3c(N)nc(F)nc32)O[C@H](CO)[C@@H]1O (some centres undefined),2.4
7,Nc1nc(F)nc2c1ncn2C1O[C@H](CO)[C@H](O)[C@H]1N (some centres undefined),0.7
8,Nc1nc(Cl)nc2c1ncn2C1O[C@H](CO)[C@H](O)[C@H]1I (some centres undefined),0
